Assay results from publication PMC4999848 (Toxins, 2016).
“And” between values parts separate entries of the source, which are not always exact repeats. Equal entries are not always repeated.

Experiments:
T84 cells = experiment: Deacetylation of 3/15ADON by T84 cells; type: in vitro ADME, human; conditions: T84, 37 °C, substrate 100 μM
Experimental: (§1) A498, Caco-2, T84 and HepG2 cells were used as models of human renal, small intestinal, colonic and hepatic cells, respectively. Cells were routinely grown in culture media (Dulbecco’s Modified Eagle Medium (DMEM), DMEM:F12 mixture and Minimum Essential Media (MEM) for A498/Caco-2, T84 and HepG2 cells, respectively) supplemented with 10% fetal calf serum and 1% antibiotics (streptomycin–penicillin solution). Cells were grown in 25 cm^2 ventilated flask maintained at 37 °C in a 5% CO2 incubator. Cells were routinely passed using trypsin-EDTA solution. For deacetylation experiments, cells were seeded onto 6-well plates at an initial density of 200,000 cells/cm^2. HepG2 and A498 were used 3–4 days post-seeding when confluence was reached. Caco-2 and T84 cells were let to differentiate for 10–14 days post-seeding before being used. In all cases, cells were washed three times with sterile phosphate buffer saline PBS^++ (PBS containing 100 mg/L of calcium and magnesium salts) before deacetylation assay.
(§2) Stock solutions of DON, 3ADON and 15ADON at 2 mg/mL were prepared in absolute ethanol and stored at −20 °C. […] In all cases, aliquots of the reaction solution were collected immediately (i.e., “time zero” sample) or after the indicated time period at 37 °C and analyzed by HPLC. […]

A498 cells = experiment: Deacetylation of 3/15ADON by A498 cells; type: in vitro ADME, human
Experimental: as §1, §2

colonic explant = experiment: Deacetylation of 3/15ADON by human colonic explants; type: in vitro ADME; conditions: for Disappearance of 3/15ADON, specific activity: colonic explant, 37 °C, substrate 100 μM; for % of deacetylation: colonic explants, 6 h incubation, 100 μM; for Contribution to total deacetylation activity: Colon: percentage of sum of specific activities (Figure 8)
Excerpt: (§3) Human tissue samples were obtained from patients undergoing surgery at the Hospital Nord of Marseille, unit of general and gastrointestinal surgery according to a collaborative “clinical transfer” project. The procedures were approved by the French ethic committee (CODECOH n° DC-2011-1319). Patients were from both genders (six men, three women), 31–74 years of age, all of European origin. All patients agree to use their tissues for research purposes. Samples were taken from macroscopically unaffected area as identified by the surgeon for intestinal samples or the pathologist for liver resections. Diagnoses leading to surgery were carcinoma for intestine or liver. After resection, the specimens were placed in ice-cold non-sterile Krebs solution implemented and transferred to the school of medicine on the same campus within 5 min, composition of the Krebs solution being previously described. The tissues were rinsed several times and maintained in oxygenated Krebs during 1 h for recovery before final dissection. Intestinal and hepatic resections were extensively washed and maintained in ice-cold culture media containing 1% streptomycin/penicillin solution and 50 μg/mL gentamycin. Tissues were cleaned from vascular vessels and conjunctive tissue using forceps under binocular microscope. In case of intestinal resection, muscularis and plexus were removed and only epithelial layer was kept. Intestinal and hepatic explants (wet weight of 20–30 mg) were then isolated from the cleaned resections using surgical punch (diameter of […]). […] Finally, the explants were washed 3 times with PBS^++ and transferred into 6-well plates before being used for deacetylation assay.
(§4) Stock solutions of DON, 3ADON and 15ADON at 2 mg/mL were prepared in absolute ethanol and stored at −20 °C. For deacetylation assay, 3- or 15ADON were incubated with cells, explants, bacteria or digestive enzymes after being diluted in PBS^++ at a final concentration of 100 μM. PBS^++ solution containing only ethanol (at 1.5% final concentration) or DON (at 100 μM) were used in parallel as negative and positive control, respectively. For cells and explants, deacetylation assay take place in 6-well plates, wells being filled with 2 mL of PBS^++ containing either ethanol, DON, 3- or 15ADON. For fecal bacteria and digestive enzyme assay, deacetylation assay was conducted in 2 mL Eppendorf tubes filled with 1.5 mL of PBS^++ containing either ethanol, DON, 3- or 15ADON. In vitro intestinal digestion by luminal enzymes was performed using porcine enzymes from Sigma-Aldrich and physiological conditions. Briefly, 3- or 15ADON were incubated with pepsin (at 1.6 mg/mL corresponding to 900 U/mL), trypsin (at 0.35 mg/mL corresponding to 6000 U/mL), pancreatic lipase (at 0.75 mg/mL corresponding to 18 U/mL) or pancreatin (at 1.23 mg/mL, lipase activity >10 U/mL, protease activity >100 U/mL, amylase activity >100 U/mL). Except for pepsin for which the digestion was conducted in HCl solution at 10 mM (pH 2.3), in vitro digestion was performed in PBS^++ (pH 7.4). Finally, deacetylation assay was also performed with commercial pooled S9 fractions from human liver, small intestine and kidneys as well as with pure recombinant human CES1 and CES2. S9 fractions and CES1/2 were used at 0.1 mg/mL and 5 μg/mL (corresponding to CES activity >20 U/mL), respectively. In all cases, aliquots of the reaction solution were collected immediately (i.e., “time zero” sample) or after the indicated time period at 37 °C and analyzed by HPLC. […] In all cases, the experiments were conducted in triplicate (n = 3).

liver explant = experiment: Deacetylation of 3/15ADON by human liver explants; type: in vitro ADME; conditions: for % of deacetylation: hepatic explants, 6 h incubation, 100 μM; for Disappearance of 3/15ADON, specific activity: liver explant, 37 °C, substrate 100 μM; for Contribution to total deacetylation activity: Liver: percentage of sum of specific activities (Figure 8)
Excerpt: as §3, §4

[1] = set-up: method as in PMID 26343882; conditions: chickens, after oral or i.v treatment; cited from earlier work
human fecal bacteria = conditions: 48 h incubation; cited from earlier work

SMILES	Disappearance of 3/15ADON, specific activity (T84 cells)	Activity of renal cells on 15ADON (A498 cells; in words)	Disappearance of 3/15ADON, specific activity (colonic explant)	% of deacetylation (colonic explant)	Contribution to total deacetylation activity: Colon (colonic explant)	% of deacetylation (liver explant)	Disappearance of 3/15ADON, specific activity (liver explant)	Contribution to total deacetylation activity: Liver (liver explant)	Acetylated form in blood [1]	Disappearance of 3/15ADON, specific activity (A498 cells; A498, 37 °C, substrate 100 μM)	% deacetylation (human fecal bacteria)
CC(=O)OC[C@]12[C@H](O)C(=O)C(C)=C[C@H]1O[C@@H]1[C@H](O)C[C@@]2(C)[C@]12CO2 [15ADON, 15-acetyldeoxynivalenol]	98 pmol/min/mg and 98 ± 29 pmol/min/mg	virtually inactive	4.5 pmol/min/mg and 4.5 ± 5.6 pmol/min/mg	0.2% ± 1.2%	0.7%	24.6% ± 2.8%	330 pmol/min/mg and 330 ± 34 pmol/min/mg	52%	traces of 15ADON are present in the blood	–	–
CC(=O)O[C@@H]1C[C@]2(C)[C@@]3(CO)[C@H](O)C(=O)C(C)=C[C@H]3O[C@H]1[C@@]21CO1 [3ADON, 3-acetyldeoxynivalenol]	80 pmol/min/mg and 80 ± 24 pmol/min/mg	–	22 ± 13 pmol/min/mg	4.2% ± 3.1%	1.7%	54.6% ± 15.4%	714 pmol/min/mg and 714 ± 198 pmol/min/mg	56%	–	79 pmol/min/mg and 79 ± 46 pmol/min/mg	78% ± 30%
